Experiments:
[1] = molecular target: T1, ATR kinase (Homo sapiens, UniProt Q13535); assay: ATR Inhibition Assay (radioactive-phosphate incorporation); format: biochemical; conditions: Ki(app); 5 nM full-length ATR, 10 μM ATP, 800 μM target peptide, 25° C.
T1 construct: Assays were carried out at 25° C. in the presence of 5 nM full-length ATR
Method: Compounds were screened for their ability to inhibit ATR kinase using a radioactive-phosphate incorporation assay. Assays were carried out in a mixture of 50 mM Tris/HCl (pH 7.5), 10 mM MgCl2 and 1 mM DTT. Final substrate concentrations were 10 μM [γ-33P]ATP (3 mCi 33P ATP/mmol ATP, Perkin Elmer) and 800 μM target peptide (ASELPASQPQPFSAKKK (SEQ. ID NO: 1)).
Assays were carried out at 25° C. in the presence of 5 nM full-length ATR. An assay stock buffer solution was prepared containing all of the reagents listed above, with the exception of ATP and the test compound of interest. 13.5 μL of the stock solution was placed in a 96 well plate followed by addition of 2 μL of DMSO stock containing serial dilutions of the test compound (typically starting from a final concentration of 15 μM with 3-fold serial dilutions) in duplicate (final DMSO concentration 7%). The plate was pre-incubated for 10 minutes at 25° C. and the reaction initiated by addition of 15 μL [γ-33P]ATP (final concentration 10 μM).
The reaction was stopped after […] by the addition of 30 μL, 0.1M phosphoric acid containing 2 mM ATP. A multiscreen phosphocellulose filter 96-well plate (Millipore, Cat no. MAPHN0B50) was pretreated with 100 μL 0.2M phosphoric acid prior to the addition of 45 μL of the stopped assay mixture. The plate was washed with 5×200 μL 0.2M phosphoric acid. After drying, 100 μL Optiphase ‘SuperMix’ liquid scintillation cocktail (Perkin Elmer) was added to the well prior to scintillation counting (1450 Microbeta Liquid Scintillation Counter, Wallac).
After removing mean background values for all of the data points, Ki(app) data were calculated from non-linear regression analysis of the initial rate data using the Prism software package (GraphPad Prism version 3.0cx for Macintosh, GraphPad Software, San Diego Calif., USA).
Compounds with a Ki value of <0.01 μM are marked with “+++.” Compounds with a Ki value >0.01 μM but <1 μM are marked with “++.” Compounds with a Ki value >1 μM but <5 μM are marked with “+.”

[2] = test system: HCT116 colorectal cancer cells; assay: Cisplatin Sensitization Assay (96 h cell viability MTS); format: cell-based; conditions: concentration of compound required to reduce the IC50 of Cisplatin alone by at least 3-fold; HCT116, 96 h MTS
Method: Compounds can be screened for their ability to sensitize HCT116 colorectal cancer cells to Cisplatin using a 96 h cell viability (MTS) assay. […] Compounds and Cisplatin are then both added simultaneously to the cell media in 2-fold serial dilutions from a top final concentration of 10 μM as a full matrix of concentrations in a final cell volume of 200 μl, and the cells are then incubated at 37° C. in 5% CO2. After 96 h, 40 μl of MTS reagent (Promega G358a) is added to each well and the cells are incubated for 1 h at 37° C. in 5% CO2. Finally, absorbance is measured at 490 nm using a SpectraMax Plus 384 reader (Molecular Devices) and the concentration of compound required to reduce the IC50 of Cisplatin alone by at least 3-fold (to 1 decimal place) can be reported.
Compounds with a Cisplatin sensitization value of <0.02 μM are marked with “+++.” Compounds with a Cisplatin sensitization value>0.02 μM but <0.2 μM are marked with “++.” Compounds with a Cisplatin sensitization value >0.2 μM but <5 μM are marked with “+.”

T1 sequence (Q13535 whole entry): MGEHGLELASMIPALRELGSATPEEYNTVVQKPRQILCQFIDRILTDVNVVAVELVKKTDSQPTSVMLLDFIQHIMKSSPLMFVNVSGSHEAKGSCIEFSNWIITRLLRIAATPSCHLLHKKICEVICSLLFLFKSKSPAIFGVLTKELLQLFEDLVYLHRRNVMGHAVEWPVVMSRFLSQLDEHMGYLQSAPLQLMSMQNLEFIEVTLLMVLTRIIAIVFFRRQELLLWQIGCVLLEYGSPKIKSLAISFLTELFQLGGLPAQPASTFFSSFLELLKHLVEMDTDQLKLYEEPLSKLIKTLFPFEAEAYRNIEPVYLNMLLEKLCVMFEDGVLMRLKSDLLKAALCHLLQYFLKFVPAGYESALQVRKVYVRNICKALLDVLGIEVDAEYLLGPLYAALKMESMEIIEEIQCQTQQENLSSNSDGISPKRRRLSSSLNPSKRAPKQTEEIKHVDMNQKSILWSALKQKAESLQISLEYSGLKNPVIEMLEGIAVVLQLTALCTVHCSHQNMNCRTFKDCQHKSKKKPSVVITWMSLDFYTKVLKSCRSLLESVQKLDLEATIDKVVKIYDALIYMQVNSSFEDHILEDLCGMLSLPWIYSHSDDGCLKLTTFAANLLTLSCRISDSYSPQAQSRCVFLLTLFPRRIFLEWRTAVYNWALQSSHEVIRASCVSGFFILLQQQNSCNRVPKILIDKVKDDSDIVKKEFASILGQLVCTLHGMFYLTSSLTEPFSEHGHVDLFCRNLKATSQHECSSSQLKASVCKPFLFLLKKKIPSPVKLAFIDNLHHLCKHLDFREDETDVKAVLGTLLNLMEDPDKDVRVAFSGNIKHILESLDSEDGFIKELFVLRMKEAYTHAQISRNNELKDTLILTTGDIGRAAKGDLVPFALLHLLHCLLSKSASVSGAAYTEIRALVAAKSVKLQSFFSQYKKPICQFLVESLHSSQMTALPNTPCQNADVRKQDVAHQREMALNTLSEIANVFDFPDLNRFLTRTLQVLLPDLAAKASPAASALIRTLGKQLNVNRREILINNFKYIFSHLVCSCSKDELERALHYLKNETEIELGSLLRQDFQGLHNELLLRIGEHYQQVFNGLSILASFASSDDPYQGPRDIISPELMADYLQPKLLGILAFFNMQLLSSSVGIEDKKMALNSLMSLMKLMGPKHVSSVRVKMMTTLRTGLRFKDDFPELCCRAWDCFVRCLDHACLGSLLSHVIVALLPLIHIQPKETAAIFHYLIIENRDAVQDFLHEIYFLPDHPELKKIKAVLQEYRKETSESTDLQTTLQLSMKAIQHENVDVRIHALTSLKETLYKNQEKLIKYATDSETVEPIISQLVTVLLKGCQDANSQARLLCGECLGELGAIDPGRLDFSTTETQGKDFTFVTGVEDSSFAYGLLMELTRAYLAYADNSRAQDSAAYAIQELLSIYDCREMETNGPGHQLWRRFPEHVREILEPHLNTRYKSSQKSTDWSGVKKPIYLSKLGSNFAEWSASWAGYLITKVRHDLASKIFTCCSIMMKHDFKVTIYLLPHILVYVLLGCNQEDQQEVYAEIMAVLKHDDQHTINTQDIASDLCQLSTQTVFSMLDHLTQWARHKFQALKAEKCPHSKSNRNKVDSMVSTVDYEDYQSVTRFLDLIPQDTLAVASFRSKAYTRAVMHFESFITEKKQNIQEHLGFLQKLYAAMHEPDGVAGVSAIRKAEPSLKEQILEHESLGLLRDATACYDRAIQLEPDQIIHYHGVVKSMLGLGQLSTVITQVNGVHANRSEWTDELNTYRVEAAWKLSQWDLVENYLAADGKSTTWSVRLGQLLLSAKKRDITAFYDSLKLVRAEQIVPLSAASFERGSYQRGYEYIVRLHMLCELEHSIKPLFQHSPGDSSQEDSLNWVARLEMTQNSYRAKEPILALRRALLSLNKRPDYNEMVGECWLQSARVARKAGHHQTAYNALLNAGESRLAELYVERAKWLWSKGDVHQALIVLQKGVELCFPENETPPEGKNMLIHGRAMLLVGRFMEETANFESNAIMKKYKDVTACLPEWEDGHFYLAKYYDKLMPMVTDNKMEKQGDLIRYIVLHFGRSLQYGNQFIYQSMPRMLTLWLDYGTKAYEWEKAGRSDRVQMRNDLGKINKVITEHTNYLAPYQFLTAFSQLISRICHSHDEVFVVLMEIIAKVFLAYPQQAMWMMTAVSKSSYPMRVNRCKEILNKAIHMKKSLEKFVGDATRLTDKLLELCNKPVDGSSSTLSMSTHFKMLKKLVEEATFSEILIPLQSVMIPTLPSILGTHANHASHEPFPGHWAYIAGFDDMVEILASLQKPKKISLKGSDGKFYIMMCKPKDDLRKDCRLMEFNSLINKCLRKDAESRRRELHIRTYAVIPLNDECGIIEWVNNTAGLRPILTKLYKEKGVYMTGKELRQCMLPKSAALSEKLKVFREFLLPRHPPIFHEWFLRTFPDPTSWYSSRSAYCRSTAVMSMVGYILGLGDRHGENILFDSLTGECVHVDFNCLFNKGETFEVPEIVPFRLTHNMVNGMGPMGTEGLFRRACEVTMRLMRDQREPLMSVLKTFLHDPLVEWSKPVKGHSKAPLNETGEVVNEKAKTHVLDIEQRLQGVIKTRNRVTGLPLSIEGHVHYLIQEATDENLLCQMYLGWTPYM

| SMILES | Ki [1] | Synergy with Cisplatin [2] |
| --- | --- | --- |
| CN1CCC[C@H]1COc1ccncc1NC(=O)c1c(N)nn2ccc(C(F)(F)F)nc12 [I-O-33, (S)-2-amino-N-(4-((1-methylpyrrolidin-2-yl)methoxy)pyridin-3-yl)-5-(trifluoromethyl)pyrazolo[1,5-a]pyrimidine-3-carboxamide] | 0.01 to 1 µM | ++ (Compounds with a Cisplatin sensitization value>0.02 μM but <0.2 μM are marked with “++.”) |
| CN(C)[C@H]1C[C@@H](Oc2ccncc2NC(=O)c2c(N)nn3ccc(C(F)(F)F)nc23)C1 [I-O-34, 2-amino-N-(4-((1s,3s)-3-(dimethylamino)cyclobutoxy)pyridin-3-yl)-5-(trifluoromethyl)pyrazolo[1,5-a]pyrimidine-3-carboxamide] | 0.01 to 1 µM | ++ (Compounds with a Cisplatin sensitization value>0.02 μM but <0.2 μM are marked with “++.”) |
| CN(C)C1CCC(Oc2ccncc2NC(=O)c2c(N)nn3ccc(C(F)(F)F)nc23)CC1 (centres unmarked) [I-O-35, 2-amino-N-(4-((4-(dimethylamino)cyclohexyl)oxy)pyridin-3-yl)-5-(trifluoromethyl)pyrazolo[1,5-a]pyrimidine-3-carboxamide] | 0.01 to 1 µM | +++ (Compounds with a Cisplatin sensitization value of <0.02 μM are marked with “+++.”) |
| CN(C)CCOCCOc1ccncc1NC(=O)c1c(N)nn2ccc(C(F)(F)F)nc12 [I-O-36, 2-amino-N-(4-(2-(2-(dimethylamino)ethoxy)ethoxy)pyridin-3-yl)-5-(trifluoromethyl)pyrazolo[1,5-a]pyrimidine-3-carboxamide] | 0.01 to 1 µM | ++ (Compounds with a Cisplatin sensitization value>0.02 μM but <0.2 μM are marked with “++.”) |
| Nc1nn2ccc(C(F)(F)F)nc2c1C(=O)Nc1cnccc1OCC1CCC(N)CC1 (centres unmarked) [I-O-37, 2-amino-N-(4-((4-aminocyclohexyl)methoxy)pyridin-3-yl)-5-(trifluoromethyl)pyrazolo[1,5-a]pyrimidine-3-carboxamide] | 0.01 to 1 µM | ++ (Compounds with a Cisplatin sensitization value>0.02 μM but <0.2 μM are marked with “++.”) |
| Nc1nn2ccc(C(F)(F)F)nc2c1C(=O)Nc1cnccc1OCCN1CC2(COC2)C1 [I-O-38, N-(4-(2-(2-oxa-6-azaspiro[3.3]heptan-6-yl)ethoxy)pyridin-3-yl)-2-amino-5-(trifluoromethyl)pyrazolo[1,5-a]pyrimidine-3-carboxamide] | 0.01 to 1 µM | + (Compounds with a Cisplatin sensitization value >0.2 μM but <5 μM are marked with “+.”) |
| CN1CC[C@H](Oc2ccncc2NC(=O)c2c(N)nn3ccc(C(F)(F)F)nc23)C1 [I-O-40, (S)-2-amino-N-(4-((1-methylpyrrolidin-3-yl)oxy)pyridin-3-yl)-5-(trifluoromethyl)pyrazolo[1,5-a]pyrimidine-3-carboxamide] | 0.01 to 1 µM | ++ (Compounds with a Cisplatin sensitization value>0.02 μM but <0.2 μM are marked with “++.”) |
| Nc1nn2ccc(C(F)(F)F)nc2c1C(=O)Nc1cnccc1OC1CCNCC1 [I-O-41, 2-amino-N-(4-(piperidin-4-yloxy)pyridin-3-yl)-5-(trifluoromethyl)pyrazolo[1,5-a]pyrimidine-3-carboxamide] | 0.01 to 1 µM | ++ (Compounds with a Cisplatin sensitization value>0.02 μM but <0.2 μM are marked with “++.”) |
| CN(C)C1CCC(COc2ccncc2NC(=O)c2c(N)nn3ccc(C(F)(F)F)nc23)CC1 (centres unmarked) [I-O-42, 2-amino-N-(4-((4-(dimethylamino)cyclohexyl)methoxy)pyridin-3-yl)-5-(trifluoromethyl)pyrazolo[1,5-a]pyrimidine-3-carboxamide] | 0.01 to 1 µM | +++ (Compounds with a Cisplatin sensitization value of <0.02 μM are marked with “+++.”) |
| COCCN1CCC[C@@H](Oc2ccncc2NC(=O)c2c(N)nn3ccc(C(F)(F)F)nc23)C1 [I-O-43, (R)-2-amino-N-(4-((1-(2-methoxyethyl)piperidin-3-yl)oxy)pyridin-3-yl)-5-(trifluoromethyl)pyrazolo[1,5-a]pyrimidine-3-carboxamide] | 0.01 to 1 µM | ++ (Compounds with a Cisplatin sensitization value>0.02 μM but <0.2 μM are marked with “++.”) |
| CN(C)C1CCC(Oc2ccncc2NC(=O)c2c(N)nn3ccc(C(F)(F)F)nc23)CC1 (centres unmarked) [I-O-44, 2-amino-N-(4-(((1s,4s)-4-(dimethylamino)cyclohexyl)oxy)pyridin-3-yl)-5-(trifluoromethyl)pyrazolo[1,5-a]pyrimidine-3-carboxamide] | 1 to 5 µM | + (Compounds with a Cisplatin sensitization value >0.2 μM but <5 μM are marked with “+.”) |
| CN(C)Cc1ccc(Oc2ccncc2NC(=O)c2c(N)nn3ccc(C(F)(F)F)nc23)cn1 [I-O-45, 2-amino-N-(4-((6-((dimethylamino)methyl)pyridin-3-yl)oxy)pyridin-3-yl)-5-(trifluoromethyl)pyrazolo[1,5-a]pyrimidine-3-carboxamide] | 0.01 to 1 µM | +++ (Compounds with a Cisplatin sensitization value of <0.02 μM are marked with “+++.”) |
| COc1cc(C)ncc1NC(=O)c1c(N)nn2ccc(C(F)(F)F)nc12 [I-O-46, 2-amino-N-(4-methoxy-6-methylpyridin-3-yl)-5-(trifluoromethyl)pyrazolo[1,5-a]pyrimidine-3-carboxamide] | 0.01 to 1 µM | ++ (Compounds with a Cisplatin sensitization value>0.02 μM but <0.2 μM are marked with “++.”) |
| COc1cc(Cl)ncc1NC(=O)c1c(N)nn2ccc(C(F)(F)F)nc12 [I-O-47, 2-amino-N-(6-chloro-4-methoxypyridin-3-yl)-5-(trifluoromethyl)pyrazolo[1,5-a]pyrimidine-3-carboxamide] | 0.01 to 1 µM | ++ (Compounds with a Cisplatin sensitization value>0.02 μM but <0.2 μM are marked with “++.”) |
| COc1c(Cl)cncc1NC(=O)c1c(N)nn2ccc(C(F)(F)F)nc12 [I-O-48, 2-amino-N-(5-chloro-4-methoxypyridin-3-yl)-5-(trifluoromethyl)pyrazolo[1,5-a]pyrimidine-3-carboxamide] | 0.01 to 1 µM | ++ (Compounds with a Cisplatin sensitization value>0.02 μM but <0.2 μM are marked with “++.”) |
| CN1CCC(Oc2c(Cl)cncc2NC(=O)c2c(N)nn3ccc(C(F)(F)F)nc23)CC1 [I-O-49, 2-amino-N-(5-chloro-4-((1-methylpiperidin-4-yl)oxy)pyridin-3-yl)-5-(trifluoromethyl)pyrazolo[1,5-a]pyrimidine-3-carboxamide] | 1 to 5 µM | + (Compounds with a Cisplatin sensitization value >0.2 μM but <5 μM are marked with “+.”) |
| CN(C)CCOc1cc(Cl)ncc1NC(=O)c1c(N)nn2ccc(C(F)(F)F)nc12 [I-O-50, 2-amino-N-(6-chloro-4-(2-(dimethylamino)ethoxy)pyridin-3-yl)-5-(trifluoromethyl)pyrazolo[1,5-a]pyrimidine-3-carboxamide] | 0.01 to 1 µM | ++ (Compounds with a Cisplatin sensitization value>0.02 μM but <0.2 μM are marked with “++.”) |
| CN(C)CCOc1cc(C(F)(F)F)ncc1NC(=O)c1c(N)nn2ccc(C(F)(F)F)nc12 [I-O-51, 2-amino-N-(4-(2-(dimethylamino)ethoxy)-6-(trifluoromethyl)pyridin-3-yl)-5-(trifluoromethyl)pyrazolo[1,5-a]pyrimidine-3-carboxamide] | 0.01 to 1 µM | + (Compounds with a Cisplatin sensitization value >0.2 μM but <5 μM are marked with “+.”) |
| COc1ccncc1NC(=O)c1c(N)nn2ccc(C(C)(C)C#N)nc12 [I-O-52, 2-amino-5-(2-cyanopropan-2-yl)-N-(4-methoxypyridin-3-yl)pyrazolo[1,5-a]pyrimidine-3-carboxamide] | 0.01 to 1 µM | +++ (Compounds with a Cisplatin sensitization value of <0.02 μM are marked with “+++.”) |
